Key:
Type in all cases: binding
[1] = molecular target: TEAD3 TAZ (amino acids 13-57) (Homo sapiens, UniProt Q99594); experiment: TEAD3-TAZ HTRF (TR-FRET) protein-protein interaction assay; conditions: for TEAD3 TAZ HTRF combined: Max % Inhibition: TEAD3, TAZ peptide; for EC50: TEAD3-TAZ HTRF, TR-FRET 665 nm/615 nm, read-out: TEAD3 TAZ HTRF combined: EC50
Protocol: (§1) Purified His-tagged TEAD protein (YAP Binding Domain, amino acids 217-447) is pre-incubated with Europium labelled anti-His antibody tracer (Perkin Elmer Cat #AD0110). Small molecule Inhibitors are then incubated with the TEAD-Eu protein complex for 30 minutes to allow for binding to TEAD protein. Biotinylated YAP peptide for TEAD-YAP assays (AA's 50-100) or biotinylated TAZ peptide for TEAD-TAZ assays (AA's 13-57) that has been pre-incubated with streptavidin-xl665 acceptor (CIS-Bio Cat #610SAXAC) or is added to the compound-TEAD mix. The TEAD-YAP-inhibitor mixture is then incubated for 60 minutes at room temperature. All reactions are carried out in a polystyrene plate. After 60 minutes, the plate is read on a plate reader using TR-FRET mode with wavelengths of 665 nm/615 nm. If YAP or TAZ binds to TEAD as expected, a TR-FRET signal results from the proximity of YAP or TAZ and TEAD after binding. If an inhibitor such as peptide 17 (Selleckchem Cat #58164) interferes with YAP-TEAD or TAZ-TEAD binding, the disruption of the YAP or TAZ:TEAD interaction results in a decrease in TR-FRET signal. The potency of compounds as YAP:TEAD or TAZ:TEAD protein-protein interaction (PPi) inhibitors is determined by an IC50 or EC50 value generated using a non-linear four parameter curve fit.

[2] = molecular target: TEAD2 TAZ (amino acids 13-57) (Homo sapiens, UniProt Q15562); experiment: TEAD2-TAZ HTRF (TR-FRET) protein-protein interaction assay; conditions: for TEAD2 TAZ HTRF combined: Max % Inhibition: TEAD2, TAZ peptide; for EC50: TEAD2-TAZ HTRF, TR-FRET 665 nm/615 nm, read-out: TEAD2 TAZ HTRF combined: EC50
TEAD2 TAZ (amino acids 13-57), sequence (Q15562 217-447): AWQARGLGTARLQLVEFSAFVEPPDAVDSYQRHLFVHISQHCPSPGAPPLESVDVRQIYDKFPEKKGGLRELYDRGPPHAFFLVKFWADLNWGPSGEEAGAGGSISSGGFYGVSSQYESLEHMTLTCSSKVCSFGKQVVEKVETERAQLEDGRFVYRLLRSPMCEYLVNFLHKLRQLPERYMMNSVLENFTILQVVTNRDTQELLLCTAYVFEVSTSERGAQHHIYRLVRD
Protocol: as §1

TEAD1 YAP50-100 = TEAD1 YAP50-100 (Homo sapiens, UniProt P28347); experiment: TEAD1-YAP HTRF (TR-FRET) protein-protein interaction assay; conditions: TEAD1, YAP peptide 50-100, HTRF; for EC50: read-out: TEAD1 YAP50-100 HTRF combined: EC50
TEAD1 YAP50-100, sequence (P28347 167-426 limits assumed): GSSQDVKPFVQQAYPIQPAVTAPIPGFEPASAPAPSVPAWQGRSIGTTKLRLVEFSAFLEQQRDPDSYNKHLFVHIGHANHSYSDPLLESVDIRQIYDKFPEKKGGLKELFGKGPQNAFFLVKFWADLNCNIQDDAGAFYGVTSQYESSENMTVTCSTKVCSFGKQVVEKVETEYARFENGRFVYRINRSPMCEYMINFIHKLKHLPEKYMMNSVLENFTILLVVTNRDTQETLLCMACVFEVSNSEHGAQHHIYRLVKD
Protocol: as §1

[3] = molecular target: TEAD1 TAZ (amino acids 13-57) (Homo sapiens, UniProt P28347); experiment: TEAD1-TAZ HTRF (TR-FRET) protein-protein interaction assay; conditions: for TEAD1 TAZ HTRF combined: Max % Inhibition: TEAD1, TAZ peptide; for EC50: TEAD1-TAZ HTRF, TR-FRET 665 nm/615 nm, read-out: TEAD1 TAZ HTRF combined: EC50
TEAD1 TAZ (amino acids 13-57), sequence (P28347 167-426 limits assumed): as above
Protocol: as §1

TEAD4 YAP50-100 = TEAD4 YAP50-100 (Homo sapiens, UniProt Q15561); experiment: TEAD4-YAP HTRF (TR-FRET) protein-protein interaction assay; conditions: TEAD4, YAP peptide 50-100, HTRF; for EC50: read-out: TEAD4 YAP50-100 HTRF combined: EC50
TEAD4 YAP50-100, sequence (Q15561 217-434 limits assumed): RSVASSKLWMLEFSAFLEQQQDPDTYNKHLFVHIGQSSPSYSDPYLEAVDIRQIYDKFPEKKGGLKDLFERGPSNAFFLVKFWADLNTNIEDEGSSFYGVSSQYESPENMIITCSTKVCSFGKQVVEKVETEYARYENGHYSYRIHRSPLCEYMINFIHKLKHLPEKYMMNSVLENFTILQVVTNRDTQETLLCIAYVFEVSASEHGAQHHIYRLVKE
Protocol: as §1

[4] = molecular target: TEAD4 TAZ (amino acids 13-57) (Homo sapiens, UniProt Q15561); experiment: TEAD4-TAZ HTRF (TR-FRET) protein-protein interaction assay; conditions: for TEAD4 TAZ HTRF combined: Max % Inhibition: TEAD4, TAZ peptide; for EC50: TEAD4-TAZ HTRF, TR-FRET 665 nm/615 nm, read-out: TEAD4 TAZ HTRF combined: EC50
TEAD4 TAZ (amino acids 13-57), sequence (Q15561 217-434 limits assumed): as above
Protocol: as §1

TEAD2 YAP50-100 = TEAD2 YAP50-100 (Homo sapiens, UniProt Q15562); experiment: TEAD2-YAP HTRF (TR-FRET) protein-protein interaction assay; conditions: TEAD2, YAP peptide 50-100, HTRF; for EC50: read-out: TEAD2 YAP50-100 HTRF combined: EC50
TEAD2 YAP50-100, sequence (Q15562 217-447): as the sequence (Q15562 217-447) above
Protocol: as §1

TEAD3 YAP50-100 = TEAD3 YAP50-100 (Homo sapiens, UniProt Q99594); experiment: TEAD3-YAP HTRF (TR-FRET) protein-protein interaction assay; conditions: TEAD3, YAP peptide 50-100, HTRF; for EC50: read-out: TEAD3 YAP50-100 HTRF combined: EC50
TEAD3 YAP50-100, sequence (Q99594 173-435 limits assumed): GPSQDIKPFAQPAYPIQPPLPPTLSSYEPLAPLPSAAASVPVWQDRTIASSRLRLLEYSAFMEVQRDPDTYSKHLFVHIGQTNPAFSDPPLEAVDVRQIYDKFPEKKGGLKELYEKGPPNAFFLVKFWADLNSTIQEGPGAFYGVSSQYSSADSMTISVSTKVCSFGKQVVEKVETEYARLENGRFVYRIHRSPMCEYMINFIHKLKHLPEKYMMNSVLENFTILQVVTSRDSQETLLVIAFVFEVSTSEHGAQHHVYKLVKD
Protocol: as §1

TEAD3 TAZ (amino acids 13-57), sequence (Q99594 173-435 limits assumed): as above

Row | Structure (SMILES) | TEAD3 TAZ HTRF combined: Max % Inhibition [1] [%] | EC50 [1] [nM] | TEAD2 TAZ HTRF combined: Max % Inhibition [2] [%] | EC50 [2] [nM] | TEAD1 YAP50-100 HTRF combined: Max % Inhibition (TEAD1 YAP50-100) [%] | EC50 (TEAD1 YAP50-100) [nM] | TEAD1 TAZ HTRF combined: Max % Inhibition [3] [%] | EC50 [3] [nM] | TEAD4 YAP50-100 HTRF combined: Max % Inhibition (TEAD4 YAP50-100) [%] | EC50 (TEAD4 YAP50-100) [nM] | TEAD4 TAZ HTRF combined: Max % Inhibition [4] [%] | EC50 [4] [nM] | TEAD2 YAP50-100 HTRF combined: Max % Inhibition (TEAD2 YAP50-100) [%] | EC50 (TEAD2 YAP50-100) [nM] | TEAD3 YAP50-100 HTRF combined: Max % Inhibition (TEAD3 YAP50-100) [%] | EC50 (TEAD3 YAP50-100) [nM]
1 | Cc1nccnc1-c1nn2c(=O)cc(-c3ccc(CC(C)(C)C)cc3)[nH]c2c1C(=O)N1C[C@H](CF)[C@@H]1C (racemic) [Compound 73, 5-[4-(2,2-dimethylpropyl)phenyl]-2-(3-methylpyrazin-2-yl)-3-[rac-(2S,3S)-3-(fluoromethyl)-2-methyl-azetidine-1-carbonyl]-4H-pyrazolo[1,5-a]pyrimidin-7-one] | 59.5 | 160 | 68.5 | 20 | 74.0 | 120 | 65.5 | 110 | 58.5 | 100 | 56.0 | 80 | 67.0 | 20 | 69.5 | 150
2 | CC1CCN1C(=O)c1nn2c(=O)cc(-c3ccc(C4CCCCC4)cc3)[nH]c2c1C(=O)N1CC(CF)C1 (single isomer, unassigned) [Enantiomer A, Example 33, 5-(4-Cyclohexylphenyl)-3-(3-(fluoromethyl)azetidine-1-carbonyl)-2-(2-methylazetidine-1-carbonyl)pyrazolo[1,5-a]pyrimidin-7(4H)-one] | 58.5 | 210 | 63.0 | 20 | 71.0 | 70 | 61.5 | 100 | 48.5 | 460 | 41.5 | 410 | 67.5 | 20 | 71.5 | 180
3 | C[C@H](CO)c1nn2c(=O)cc(-c3ccc(C4CCCCC4)cc3)[nH]c2c1C(=O)N1CC(CF)C1 (single isomer, unassigned) [Enantiomer A, Example 55] | 59.5 | 110 | 51.5 | 10 | 62.0 | 80 | 44.0 | 110 | 42.0 | 500 | 32.0 | 460 | 61.5 | 10 | 69.5 | 100
4 | O=C(c1c(C2CNCCO2)nn2c(=O)cc(-c3ccc(C4CCCCC4)cc3)[nH]c12)N1CC(CF)C1 (single isomer, unassigned) [Enantiomer A, Example 63, 5-(4-Cyclohexylphenyl)-3-[3-(fluoromethyl)azetidine-1-carbonyl]-2-morpholin-2-yl-4H-pyrazolo[1,5-a]pyrimidin-7-one] | 55.5 | 200 | 66.0 | 40 | 66.0 | 140 | 55.5 | 130 | 40.0 | 1600 | 30.5 | 1550 | 66.0 | 40 | 62.0 | 180
5 | CC1CCN1C(=O)c1nn2c(=O)cc(-c3ccc(C4CCCCC4)cc3)[nH]c2c1C(=O)N1CC(CF)C1 (single isomer, unassigned) [Enantiomer B, Example 33, 5-(4-Cyclohexylphenyl)-3-(3-(fluoromethyl)azetidine-1-carbonyl)-2-(2-methylazetidine-1-carbonyl)pyrazolo[1,5-a]pyrimidin-7(4H)-one] | 58.5 | 200 | 68.0 | 20 | 72.0 | 80 | 64.0 | 100 | 49.0 | 670 | 37.5 | 570 | 72.0 | 20 | 69.0 | 150
6 | C[C@@H](CO)c1nn2c(=O)cc(-c3ccc(C4CCCCC4)cc3)[nH]c2c1C(=O)N1CC(CF)C1 (single isomer, unassigned) [Enantiomer B, Example 55] | 53.5 | 100 | 57.0 | 20 | 71.0 | 80 | 45.5 | 90 | 36.5 | 200 | 27.0 | 140 | 64.0 | 10 | 61.5 | 80
7 | O=C(c1c(C2CNCCO2)nn2c(=O)cc(-c3ccc(C4CCCCC4)cc3)[nH]c12)N1CC(CF)C1 (single isomer, unassigned) [Enantiomer B, Example 63, 5-(4-Cyclohexylphenyl)-3-[3-(fluoromethyl)azetidine-1-carbonyl]-2-morpholin-2-yl-4H-pyrazolo[1,5-a]pyrimidin-7-one] | 52.0 | 160 | 65.0 | 30 | 62.0 | 90 | 52.0 | 140 | 35.0 | 1090 | 28.0 | 590 | 62.5 | 40 | 59.5 | 150
8 | Cc1nccnc1-c1nn2c(=O)cc(-c3ccc(OC(c4ccccc4)C(F)(F)F)cc3)[nH]c2c1C(=O)N1C[C@H](CF)[C@@H]1C (single isomer, unassigned) [Final product obtained using Enantiomer A from Step 1, Example 56] | 74.5 | 430 | 89.0 | 60 | 74.0 | 370 | 63.0 | 320 | 69.5 | 2700 | 67.0 | 2250 | 92.0 | 60 | 81.5 | 370

— patent publication US12692269B2, “Therapeutic compounds” (Genentech, Inc., priority 2019, dated 2026)
